According to US6310072A (priority 1995, dated 2001):
“Also recorded” adds a separate entry of the source. Where two headings read alike, the source gives them in different places.

Assays:
[1] = cited from earlier work
Sprague-Dawley rats [2] = format: in vivo, rat (Sprague-Dawley)
Sprague-Dawley rats [3] = test system: Sprague-Dawley rats
κ2a-2 opioid receptor = settings: κ2a-2 subtype; cited from earlier work
humans = settings: naive human adult, every four hours, cited from earlier work
surgical patients [4] = settings: i.v. alone; cited from earlier work
Dark Agouti rats [5] = test system: Dark Agouti rats; design: species or system rat (Dark Agouti); settings: rat, in vivo, sc
Dark Agouti rats [6] = format: in vivo, rat (Dark Agouti); settings: any time
Sprague-Dawley rats [7] = format: in vivo, rat (Sprague-Dawley); remark: listed apart in the source
Sprague-Dawley rats [8] = settings: cited from earlier work; for ED50 / Time to maximum antinociception: i.c.v.
Dark Agouti rats [9] = settings: rat, in vivo, sc
κ-opioid receptors = settings: in vivo; cited from earlier work
[10] = test system: fetal dorsal root ganglion sensory neurones; settings: cited from earlier work
[11] = test system: δ- relative to κ-opioid receptors; settings: cited from earlier work
[12] = test system: δ-opioid receptors relative to μ-opioid receptors; settings: cited from earlier work
surgical patients [13] = format: in vivo, human; settings: i.v. morphine 2.0 mg plus oxycodone 2.0 mg; oxycodone 10 mg alone
rats = settings: systemic oxycodone; cited from earlier work
Dark Agouti rats [14] = settings: s.c. oxycodone; cited from earlier work

C=CCN1CC[C@]23c4c5ccc(O)c4O[C@H]2/C(=N/N=C2\CC[C@@]4(O)[C@H]6Cc7ccc(O)c8c7[C@@]4(CCN6CC=C)[C@H]2O8)CC[C@@]3(O)[C@H]1C5 [naloxonazine]
Effect on DAMGO antinociception ([1]; naloxonazine): antagonise the antinociceptive effects | Effect on DPDPE antinociception ([1]; naloxonazine): did not reduce the antinociception | Effect on morphine antinociception ([1]; naloxonazine): antagonise the antinociceptive effects | Duration of action of oxycodone after antagonist (Sprague-Dawley rats [2]; rat, in vivo): 60 min | Effect on morphine antinociception (Sprague-Dawley rats [2]; rat, in vivo): completely attenuated; also recorded: attenuated the antinociceptive effects | Effect on oxycodone antinociception (Sprague-Dawley rats [2]; rat, in vivo): minor effect on the observed antinocicepfion; also recorded: magnitude of antinociception did not appear to be significantly reduced during the first 15 min; also recorded: almost no effect; also recorded: did not attenuate | Reduction of %MPE values versus untreated rats (Sprague-Dawley rats [2]; rat, in vivo): 5-10% | Excitatory behaviour (Sprague-Dawley rats [3]; rat, in vivo): minor excitatory behaviour (shaking and teeth chattering) | Sensitivity to external stimuli versus untreated rats (Sprague-Dawley rats [3]; rat, in vivo): more sensitive to external stimuli (touch and sound)

Oc1ccc2c3c1O[C@H]1c4[nH]c5c(c4C[C@@]4(O)[C@@H](C2)N(CC2CC2)CC[C@]314)C[C@@]1(O)[C@H]2Cc3ccc(O)c4c3[C@@]1(CCN2CC1CC1)[C@H]5O4 [nor-BNI, nor-binaltorphimine]
Effect on U69,593 antinociception ([1]; nor-BNI): antagonize the antinociceptive effects | Effect on bremazocine antinociception ([1]; nor-BNI): antagonize the antinociceptive effects | Ki (κ2a-2 opioid receptor): 5.9 nM | Effect on U69,593 antinociception (Sprague-Dawley rats [2]; rat, in vivo): complete attenuation of the antinociceptive effects; also recorded: markedly attenuated | Effect on bremazocine antinociception (Sprague-Dawley rats [2]; rat, in vivo): complete attenuation of the antinociceptive effects; also recorded: markedly attenuated | Effect on morphine antinociception (Sprague-Dawley rats [2]; rat, in vivo): not attenuated; also recorded: no effect; also recorded: did not attenuate | Effect on oxycodone antinociception (Sprague-Dawley rats [2]; rat, in vivo): complete attenuation of the antinociceptive effects; also recorded: markedly attenuated; also recorded: completely attenuated; also recorded: completely attentuated; also recorded: attenuated only by nor-BNI

CN1CC[C@]23c4c5ccc(O)c4O[C@H]2[C@@H](O)C=C[C@H]3[C@H]1C5 [morphine]
Lower threshold initial dose producing analgesia (humans; intravenous): 4 to 5 mg | Lower threshold initial dose producing analgesia (humans; oral): 30 mg | Dose used for intubation (surgical patients [4]): approximately 10 mg | Time of onset of antinociception (%MPE≥30%) (Dark Agouti rats [5]): 22 min | Antinociception (% MPE) (Dark Agouti rats [6]; i.p. morphine 621 nmol alone): ≤ 50 % MPE | Degree of antinociception (%MPE) (Sprague-Dawley rats [7]; i.c.v. morphine 15 nmol alone, any time in 3 h): ≤ 20% | ED50 (Sprague-Dawley rats [8]): 34 nmol | Failure of eye reflex test (Dark Agouti rats [9]): approximately 40 % of the time | Failure of righting reflex test (Dark Agouti rats [9]): approximately 33 % of the time

CCC12CCN(CC3CC3)C(C(=O)c3ccc(O)cc31)C2C (centres unmarked) [ethylketazocine]
Antinociception profile (κ-opioid receptors): antinociception characterised by a rapid onset of action and a single antinociceptive phase

C=CCN1CC[C@]23c4c5ccc(O)c4O[C@H]2C(=O)CC[C@@]3(O)[C@H]1C5 [naloxone]
Action potential duration (APD) [10]: marked shortening of the action potential duration (APD) | Reversal of oxycodone/morphine antinociception by naloxone (Sprague-Dawley rats [8]; rat, in vivo): completely reversible; also recorded: completely attenuated

CCC12CCN(CC3(O)CC3)C(Cc3ccc(O)cc31)C2(C)C (centres unmarked) [bremazocine]
Antinociception profile (κ-opioid receptors): antinociception characterised by a rapid onset of action and a single antinociceptive phase

Oc1ccc2c3c1O[C@H]1c4[nH]c5ccccc5c4C[C@@]4(O)[C@@H](C2)N(CC2CC2)CC[C@]314 [naltrindole]
Selectivity for δ- relative to κ-opioid receptors [11]: 10,000 fold | %MPE values versus pre-dosing baseline (Sprague-Dawley rats [2]; rat, in vivo): not significantly different (p>0.05) from pre-dosing baseline values | Effect on DPDPE antinociception (Sprague-Dawley rats [2]; rat, in vivo): significantly attenuated (p<0.05); also recorded: completely attenuated | Effect on oxycodone antinociception (Sprague-Dawley rats [2]; rat, in vivo): did not significantly attenuate (p>0.05); also recorded: failed to attenuate | Selectivity for δ- relative to μ-opioid receptors [12]: 100 fold

COc1ccc2c3c1O[C@H]1C(=O)CC[C@@]4(O)[C@@H](C2)N(C)CC[C@]314 [oxycodone]
Onset of clinical effect (surgical patients [13]): ~5 min | Catatonic behaviour (rats): catatonic behaviour observed | Lower threshold initial dose producing analgesia (humans; oral): 10 mg | Antinociception (Dark Agouti rats [14]): achieved maximum antinociception | Dose used for intubation (surgical patients [4]): approximately 10 mg | ED50 oxycodone dose (Dark Agouti rats [5]): 0.44 (±0.04) mg | Time of onset of antinociception (%MPE≥30%) (Dark Agouti rats [5]): 12 min | Time to maximum antinociception (Tmax) (Dark Agouti rats [5]): 20 min | Time of peak antinociception (Sprague-Dawley rats [2]; i.c.v. oxycodone 200 nmol): 5 min | Time to return to baseline values (Sprague-Dawley rats [2]; i.c.v. oxycodone 200 nmol): ≤ 90 min | Antinociception peak (% MPE) (Sprague-Dawley rats [2]; i.c.v. oxycodone 200 nmol, 5 min): 100 % MPE | Duration of action of oxycodone (Sprague-Dawley rats [2]; oxycodone 200 nmol i.c.v. alone): 90 min | Antinociception (% MPE) (Dark Agouti rats [6]; i.p. oxycodone 571 nmol alone): ≤ 50 % MPE | Duration of antinociception (Sprague-Dawley rats [7]; i.c.v. equipotent doses administered separately): 90 min | Antinociception (Sprague-Dawley rats [7]; i.c.v. oxycodone 40 nmol alone): no antinociception was observed; also recorded: most of the %MPE values were negative | Reversal of oxycodone/morphine antinociception by naloxone (Sprague-Dawley rats [8]; i.c.v. naloxone (55 nmol)): naloxone-reversible antinociceptlon | Time by which antinociception is essentially complete (Sprague-Dawley rats [8]; i.c.v. oxycodone, post-dosing): ≤ 90 min | ED50 (Sprague-Dawley rats [8]): 78 nmol | Time to maximum antinociception (Sprague-Dawley rats [8]): ≤ 7 min | Time to maximum antinociception (Sprague-Dawley rats [8]; listed as Oxycodone): 5 to 7 min | Catatonic behaviour (Sprague-Dawley rats [3]; i.c.v. oxycodone 200 nmol): nor did they exhibit the catatonic behaviour | Spontaneous bladder emptying or incontinence (Sprague-Dawley rats [3]; i.c.v., oxycodone 200 nmol, morphine 78 nmol): did not exhibit any signs of spontaneous bladder emptying or incontinence | Failure of eye reflex test (Dark Agouti rats [9]): approximately 40 % of the time | Failure of righting reflex test (Dark Agouti rats [9]): ~50 % of the time | Loss of landing reflex (Dark Agouti rats [9]): no loss of the landing reflex | Loss of righting or landing reflexes (Dark Agouti rats [9]): no loss of the righting or landing reflexes | Sedation (Dark Agouti rats [9]): markedly sedated compared with control rats

O=C1CC[C@@]2(O)[C@H]3Cc4ccc(O)c5c4[C@@]2(CCN3CC2CC2)[C@H]1O5 [naltrexone]
Action potential duration (APD) [10]: marked shortening of the action potential duration (APD)
